Where a name gives a salt, the structure may show the parent alone.
Experiments:
scar formation = details: stated as known; inhibitor of scar development; cited from earlier work
SCAD = experiment: Chemical screening with the SCAD (Scar-in-a-Dish) assay; type: cell-based, mice; details: 2.5 μM final concentration
Description: Dorsal skins were collected from C57BL/6J or En1^Cre;R26^mTmG or En1^e;R26^VT2/GK3 mice at different ages as indicated, and washed twice with cold DMEM/F12 (Thermo Fisher Scientific 11320074) medium to remove contaminating blood, and washed once with Hank's Balanced Salt Solution (HBSS, Thermo Fisher Scientific 14175095). After careful removal of non-skin tissue at the ventral side with a surgical scalpel, round full-thickness skin pieces were created with disposable Ø 2 mm biopsy punch (Stiefel 270130), and cultured in 300 μl of DMEM/F12 medium containing 10% FBS, 1× GlutaMAX (Thermo Fisher Scientific 35050038), 1× Penicillin/streptomycin (Thermo Fisher Scientific 15140122), and 1× MEM non-essential amino acids (Thermo Fisher Scientific 11140035) in each well of 96-well plates in a humidified 37° C., 5% CO2 incubator. (Note: the 2 mm skin pieces were cultured in medium but not floating at the liquid air surface). Fresh medium was supplied every second day and the skin tissues were harvested at the indicated time points (day 1 to day 5 after culture), with the fresh tissues serving as day 0 control, and fixed in 2% PFA for overnight at 4° C.
D0 SCADs (see Example 2) were first treated with Nefopam from Prestwick chemical library (FDA approved library). The initial concentration of the chemical in library format is 1 mM, dissolved in DMSO. The final concentration of chemical used in FDA-library is 2.5 μM.
All chemicals in the library are the same (1 mM), and they are added by a robot, eg. 0.5 μl chemical per well of 200 μl culture to make 2.5 μM final concentration. SCAD biopsies were prepared in 96-well plate with 200 μl per well, the automated system was used to add the chemical Nefopam.
All the data were compiled on excel sheets and scores were added based on the visual variability observed when compared to the DMSO and media control D5 SCADs.
The chemical Nefopam was selected (see Example 7) and further analyzed on SCAD (see Example 2). The treatment was done in triplicates.

SMILES: CN1CCOC(c2ccccc2)c2ccccc2C1 (stereo not shown) [Prestw-229, Nefopam hydrochloride]
- scar formation (known effect, positive control) (scar formation): known to reduce scar formation
- collagen formation in SCAD sections (SCAD; D5 SCAD sections, compared to control SCAD): significantly less
- scar formation in the whole-mount image (SCAD; D5 SCAD, 96-well plate, triplicates, compared to control (media treated) SCAD): visually less scar formation
- scar development (SCAD; D5 SCAD, FIG. 7): visible reduction of scar development

From US20210096127A1, “MEANS AND METHODS FOR MONITORING SCAR DEVELOPMENT” (HELMHOLTZ ZENTRUM MÜNCHEN - DEUTSCHES FORSCHUNGSZENTRUM FÜR …, priority 2018, published 2021)
